These results are taken from patent US9062071B2, “Substituted piperidines as HDM2 inhibitors” (Merck Sharp & Dohme Corp, priority 2011, dated 2015).

This assay addresses HDM2 protein (Homo sapiens, UniProt Q00987). As to the kind of experiment: fluorescence polarization screening assay (FP IC50). The settings on record: class symbols. The assay is classed as binding. As to the method:
The compounds were evaluated to determine activity at the HDM2 protein by known methods such as the fluorescence polarization screening assay that measures the inhibitory concentration that achieves 50% of maximal activity (FP IC50) and the dissociation constant for inhibitor binding (FP Ki). [Zhang et al., J. Analytical Biochemistry 331: 138-146 (2004)].

By IC50 is commonly meant the concentration that inhibits the measured activity by half. A higher IC50 goes with weaker potency in that assay.

Sequence of HDM2 protein (Q00987 whole entry): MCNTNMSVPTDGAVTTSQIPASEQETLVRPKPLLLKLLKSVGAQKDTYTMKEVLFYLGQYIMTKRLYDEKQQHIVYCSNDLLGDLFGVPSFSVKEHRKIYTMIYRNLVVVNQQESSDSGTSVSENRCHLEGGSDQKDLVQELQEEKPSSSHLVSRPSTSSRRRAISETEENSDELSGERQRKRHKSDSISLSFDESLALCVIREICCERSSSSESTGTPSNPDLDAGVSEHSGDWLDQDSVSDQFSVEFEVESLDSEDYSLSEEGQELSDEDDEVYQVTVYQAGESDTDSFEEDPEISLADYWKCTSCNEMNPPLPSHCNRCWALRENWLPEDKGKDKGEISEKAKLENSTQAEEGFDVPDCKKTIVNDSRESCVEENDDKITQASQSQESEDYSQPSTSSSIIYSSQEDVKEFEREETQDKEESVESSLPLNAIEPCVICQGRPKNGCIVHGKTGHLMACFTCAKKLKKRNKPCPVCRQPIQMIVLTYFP

In the case of `COCC1c2ccc(Cl)cc2CCN1C(=O)[C@]1(Oc2csc(C(F)(F)F)c2)CCCN(C(=O)c2ncccc2C(F)(F)F)[C@@H]1CCN1CCOCC1` (stereo partly drawn) [Compound A17, 6-chloro-1-(methoxymethyl)-2-{[(2R,3S)-2-(2-morpholin-4-ylethyl)-1-{[3-(trifluoromethyl)pyridin-2-yl]carbonyl}-3-{[5-(trifluoromethyl)thiophen-3-yl]oxy}piperidin-3-yl]carbonyl}-1,2,3,4-tetrahydroisoquinoline], the IC50 was 1 to 100 nM.

Compound `CCC[C@H]1N(C(=O)c2ncccc2C(F)(F)F)CCC[C@@]1(Oc1csc(C(F)(F)F)c1)C(=O)N1CCc2cc(Cl)ccc2C1CN1CCCC1` (stereo partly drawn) [Compound A15, 6-chloro-2-{[(2R,3S)-2-propyl-1-{[3-(trifluoromethyl)pyridin-2-yl]carbonyl}-3-{[5-(trifluoromethyl)thiophen-3-yl]oxy}piperidin-3-yl]carbonyl}-1-(pyrrolidin-1-ylmethyl)-1,2,3,4-tetrahydroisoquinoline] showed an IC50 of 101 to 20000 nM.

On to `CCC[C@H]1N(C(=O)c2ncccc2C(F)(F)F)CCC[C@@]1(Oc1csc(C(F)(F)F)c1)C(=O)N1CCc2cc(SC)ccc2C1` [Compound A88, 6-(methylsulfanyl)-2-{[(2R,3S)-2-propyl-1-{[3-(trifluoromethyl)pyridin-2-yl]carbonyl}-3-{[5-(trifluoromethyl)thiophen-3-yl]oxy}piperidin-3-yl]carbonyl}-1,2,3,4-tetrahydroisoquinoline], for which the IC50 was 101 to 20000 nM.

`CCC[C@H]1N(C(=O)c2ncccc2C(F)(F)F)CCC[C@@]1(Oc1csc(C(F)(F)F)c1)C(=O)N1CCc2cc(Cl)ccc2C1CO` (stereo partly drawn) [Compound A105, (6-chloro-2-{[(2R,3S)-2-propyl-1-{[3-(trifluoromethyl)pyridin-2-yl]carbonyl}-3-{[5-(trifluoromethyl)thiophen-3-yl]oxy}piperidin-3-yl]carbonyl}-1,2,3,4-tetrahydroisoquinolin-1-yl)methanol] registered an IC50 of 101 to 20000 nM.

The compound `CCC[C@H]1N(C(=O)c2ncccc2C(F)(F)F)CCC[C@@]1(Oc1csc(C(F)(F)F)c1)C(=O)N1CCc2cc(C(N)=O)ccc2C1` [Compound A89, 2-{[(2R,3S)-2-propyl-1-{[3-(trifluoromethyl)pyridin-2-yl]carbonyl}-3-{[5-(trifluoromethyl)thiophen-3-yl]oxy}piperidin-3-yl]carbonyl}-1,2,3,4-tetrahydroisoquinoline-6-carboxamide] registered an IC50 of 101 to 20000 nM.

As to `CCC[C@H]1N(C(=O)c2ncccc2C(F)(F)F)CCC[C@@]1(Oc1csc(C(F)(F)F)c1)C(=O)N1CCc2sc(Cl)cc2C1CCCN1CCOCC1` (stereo partly drawn) [Compound A32, 2-chloro-4-(3-morpholin-4-ylpropyl)-5-{[(2R,3S)-2-propyl-1-{[3-(trifluoromethyl)pyridin-2-yl]carbonyl}-3-{[5-(trifluoromethyl)thiophen-3-yl]oxy}piperidin-3-yl]carbonyl}-4,5,6,7-tetrahydrothieno[3,2-c]pyridine], the IC50 fell in the range of 101 to 20000 nM.

Regarding `CCC[C@H]1N(C(=O)c2ncccc2C(F)(F)F)CCC[C@@]1(Oc1csc(C(F)(F)F)c1)C(=O)N1CCc2cc(Cl)ccc2C1CCC(=O)NS(C)(=O)=O` (stereo partly drawn) [Compound A63, 3-(6-chloro-2-{[(2R,3S)-2-propyl-1-{[3-(trifluoromethyl)pyridin-2-yl]carbonyl}-3-{[5-(trifluoromethyl)thiophen-3-yl]oxy}piperidin-3-yl]carbonyl}-1,2,3,4-tetrahydroisoquinolin-1-yl)-N-(methylsulfonyl) propanamide], the IC50 was 1 to 100 nM.

In turn, `CCC[C@H]1N(C(=O)c2ncccc2C(F)(F)F)CCC[C@@]1(Oc1csc(C(F)(F)F)c1)C(=O)N1Cc2sc(Cl)cc2CC1C(=O)O` (stereo partly drawn) [Compound A174, 2-chloro-6-{[(2R,3S)-2-propyl-1-{[3-(trifluoromethyl)pyridin-2-yl]carbonyl}-3-{[5-(trifluoromethyl)thiophen-3-yl]oxy}piperidin-3-yl]carbonyl}-4,5,6,7-tetrahydrothieno[2,3-c]pyridine-5-carboxylic acid] displayed an IC50 of 1 to 100 nM.

As for `CCC[C@H]1N(C(=O)c2ncccc2C(F)(F)F)CCC[C@@]1(Oc1csc(C(F)(F)F)c1)C(=O)N1Cc2ccc(Cl)cc2C[C@@H]1CCC(=O)O` [Compound A130, 3-[(3S)-6-chloro-2-{[(2R,3S)-2-propyl-1-{[3-(trifluoromethyl)pyridin-2-yl]carbonyl}-3-{[5-(trifluoromethyl)thiophen-3-yl]oxy}piperidin-3-yl]carbonyl}-1,2,3,4-tetrahydroisoquinolin-3-yl]propanoic acid], the IC50 is 1 to 100 nM.

As for `CCC[C@H]1N(C(=O)c2ncccc2C(F)(F)F)CCC[C@@]1(Oc1csc(C(F)(F)F)c1)C(=O)N1CCc2cc(Cl)ccc2C1C(=O)N1CCN(CCO)CC1` (stereo partly drawn) [Compound A92, 2-{4-[(6-chloro-2-{[(2R,3S)-2-propyl-1-{[3-(trifluoromethyl)pyridin-2-yl]carbonyl}-3-{[5-(trifluoromethyl)thiophen-3-yl]oxy}piperidin-3-yl]carbonyl}-1,2,3,4-tetrahydroisoquinolin-1-yl)carbonyl]piperazin-1-yl}ethanol], the IC50 was in the range of 101 to 20000 nM.

For the compound `CCC[C@H]1N(C(=O)c2ncccc2C(F)(F)F)CCC[C@@]1(Oc1csc(C(F)(F)F)c1)C(=O)N1CCc2cc(F)ccc2C1C(=O)O` (stereo partly drawn) [Compound A104, 6-fluoro-2-{[(2R,3S)-2-propyl-1-{[3-(trifluoromethyl)pyridin-2-yl]carbonyl}-3-{[5-(trifluoromethyl)thiophen-3-yl]oxy}piperidin-3-yl]carbonyl}-1,2,3,4-tetrahydroisoquinoline-1-carboxylic acid], the IC50 is 1 to 100 nM.

For `CCC[C@H]1N(C(=O)c2ncccc2C(F)(F)F)CCC[C@@]1(Oc1csc(C(F)(F)F)c1)C(=O)N1Cc2ccc(Cl)cc2C[C@@H]1CCC(=O)N(C)C` [Compound A135, 3-[(3S)-6-chloro-2-{[(2R,3S)-2-propyl-1-{[3-(trifluoromethyl)pyridin-2-yl]carbonyl}-3-{[5-(trifluoromethyl)thiophen-3-yl]oxy}piperidin-3-yl]carbonyl}-1,2,3,4-tetrahydroisoquinolin-3-yl]-N,N-dimethylpropanamide], the IC50 is 1 to 100 nM.

For the compound `COCC1c2ccc(Cl)cc2CCN1C(=O)[C@]1(Oc2csc(C(F)(F)F)c2)CCCN(C(=O)c2ncccc2C(F)(F)F)[C@@H]1CCNC1CCOCC1` (stereo partly drawn) [Compound A22, N-{2-[(2R,3S)-3-{[6-chloro-1-(methoxymethyl)-3,4-dihydroisoquinolin-2(1H)-yl]carbonyl}-1-{[3-(trifluoromethyl)pyridin-2-yl]carbonyl}-3-{[5-(trifluoromethyl)thiophen-3-yl]oxy}piperidin-2-yl]ethyl}tetrahydro-2H-pyran-4-amine], the IC50 fell in the range of 1 to 100 nM.

`CCC[C@H]1N(C(=O)c2ncccc2C(F)(F)F)CCC[C@@]1(Oc1csc(C(F)(F)F)c1)C(=O)N1CCc2cc(Cl)ccc2C1COC` (stereo partly drawn) [Compound A106, 6-chloro-1-(methoxymethyl)-2-{[(2R,3S)-2-propyl-1-{[3-(trifluoromethyl)pyridin-2-yl]carbonyl}-3-{[5-(trifluoromethyl)thiophen-3-yl]oxy}piperidin-3-yl]carbonyl}-1,2,3,4-tetrahydroisoquinoline] came in with an IC50 of 1 to 100 nM.
